{
  "source": "patent US20210052600A1",
  "about": "“THERAPEUTIC AGENTS FOR STRESS URINARY INCONTINENCE AND INCOTINENCE OF FECES” (Takeda Pharmaceutical Company Limited, priority 2017, published 2021)",
  "key": {"urethral resistance": {"system": "urethral resistance", "test": "Rat urethral resistance (LPP) measured by high speed infusion of saline into the bladder", "assay_type": "in vivo", "conditions": "for LPP Post / LPP Increase / LPP Pre: Table 8, mean ± SEM; for LPP Post: 30 minutes after administration; for LPP Increase: Post minus Pre; for LPP Pre: before administration", "from_the_text": "The rats were anesthetized with isoflurane. Their spinal cord was transected at the T8-T9 (the eighth thoracic cord—the ninth thoracic cord) level. After opening of the bladder dome, two polyethylene tubes (PE-100) were inserted into the bladder. The incised portion of the bladder was closed with sutures, and the other incisions were also closed. The rats were placed in Bollman cages. The catheter for intravesical pressure measurement was connected to a pressure transducer, while the catheter for saline filling was connected to a syringe filled with Evans Blue-dyed saline. Change in intravesical pressure was recorded using the pressure transducer via an electric signal amplifier and an analog-to-digital converter. After recovery of the animals from anesthesia, the intravesical pressure measurement was started, and saline was infused at a speed of 0.1 mL/sec into the bladder using an infusion pump. The infusion was stopped when the leakage of the saline from the urethral orifice was observed. Immediately thereafter, the bladder was emptied by releasing the pressure. In this operation, the peak of recorded intravesical pressure during the saline infusion was used as LPP in this Example. This measurement was repeated, and the average LPP from the last three measurements was used as the LPP value of the trial. The mean from 2 such trials was used as a Pre value. 0.5% MC was used as the vehicle. […] The difference in LPP from the Pre value (increased amount of LPP) was calculated. Regarding change in LPP before and after drug administration, the differences between the mean values of the drug-treated and vehicle-treated groups were analyzed by the one-tailed Williams' test."}, "[1]": {"test": "Body weight of obese rats (DIO-F344) under continuous subcutaneous administration and effective plasma concentration", "assay_type": "in vivo, rat", "conditions": "for Change in body weight (% change): mean ± SEM", "protocol": "Forty male DIO-F344 rats bred with high fat diet (42 kcal % fat) were used. On the day before surgery, the rats were grouped on the basis of their body weight. Compound A′ and Compound B′ were each dissolved in saline. Osmotic pumps filled with the Compound A′ or Compound B′ solution were subcutaneously implanted in the rats under isoflurane anesthesia. The body weight just after surgery was used as a Pre value, and the body weight was measured every day until 14 days after surgery. Regarding the averages in the body weight on Day 14, the difference in the mean averages of the drug-treated group and the vehicle-treated group was analyzed by the one-tailed Williams' test.\nThe average Day 14 plasma concentration from the values of each rat measured in the morning and afternoon was used as a plasma concentration for the animal. The rate of change in body weight was calculated from the values measured just after and 14 days after osmotic pump implantation. The rate (average rate) of change of the vehicle group was subtracted from that of each drug-administered rat to plot the plasma concentration and the change in body weight. The plasma concentration at which the drug lowered the body weight by 3.8% was calculated by linear regression analysis."}, "anus-closing functions": {"system": "anus-closing functions", "test": "Rat anus-closing functions (Anal LPP) measured by high speed infusion of saline into the rectum", "assay_type": "in vivo", "conditions": "1 mg/kg i.v.; 5 minutes after administration; mean ± SEM", "source_text": "Thirty six female SD rats were used. After overnight fasting, rats were intraperitoneally administered with urethane for anesthesia, and isoflurane inhalation was further added during surgery. The abdomen was incised to expose the rectum, and a small incision of the rectum was made. A polyethylene catheter (SP61, Natsume) was inserted into the rectum through the rectum incision, and the tip of the catheter was positioned around 5 mm from the anal orifice. The other end of the catheter was connected with a pressure transducer and an infusion pump via three-way stopcocks, and the change in pressure in the rectum was measured using the pressure transducer, an electric signal amplifier, and an analog-to-digital converter. For administrating drugs, a polyethylene catheter (SP45, Natsume) was inserted into the femoral vein after exposing the vein by small incision.\nAfter recovery period from surgery, while saline was infused at a speed of 0.1 mL/sec into the rectum using an infusion pump, change in the measured pressure—was observed. The infusion was stopped when the leakage of the saline from the anal orifice was observed. In the procedure, sudden decrease in the pressure was observed during the infusion with the leakage of saline from the anal orifice. The peak value of the pressure recorded in the rectum during the course of the procedures was defined as “an Anal LPP” in this Example. […] The Anal LPP was again measured in the same way 5 minutes after drug administration. The difference in Anal LPP from the Pre value (increased amount of Anal LPP) was calculated. Regarding change in Anal LPP before and after drug administration, the differences between the mean values of the drug-treated and vehicle-treated groups were analyzed by the one-tailed Williams' test or Student's t-test."}, "[2]": {"conditions": "cited from earlier work"}, "[3]": {"conditions": "cited from earlier work", "remark": "listed apart in the source"}},
  "note": "Read-outs that look alike come from different tables or passages of the source.",
  "data": [
    {"smiles": "C[C@H]1CNCCc2ccc(Cl)cc21", "note": "[Compound B′, (R)-8-chloro-1-methyl-2,3,4,5-tetrahydro-1H-3-benzazepine]", "values": [
      {"measurement": "LPP Post", "setting": "urethral resistance; 1 mg/kg p.o.", "value": "77.0 ± 3.6", "unit": "cm H2O"},
      {"measurement": "LPP Increase", "setting": "urethral resistance; 1 mg/kg p.o.", "value": "9.0 ± 1.9", "unit": "cm H2O"},
      {"measurement": "LPP Pre", "setting": "urethral resistance; 1 mg/kg p.o.", "value": "67.9 ± 2.5", "unit": "cm H2O"},
      {"measurement": "LPP Post", "setting": "urethral resistance; 2.5 mg/kg p.o.", "value": "88.1 ± 3.5", "unit": "cm H2O"},
      {"measurement": "LPP Increase", "setting": "urethral resistance; 2.5 mg/kg p.o.", "value": "19.6 ± 1.7", "unit": "cm H2O"},
      {"measurement": "LPP Pre", "setting": "urethral resistance; 2.5 mg/kg p.o.", "value": "68.5 ± 3.8", "unit": "cm H2O"},
      {"measurement": "LPP Post", "setting": "urethral resistance; 5 mg/kg p.o.", "value": "85.4 ±4.1", "unit": "cm H2O"},
      {"measurement": "LPP Increase", "setting": "urethral resistance; 5 mg/kg p.o.", "value": "25.1 ± 2.7", "unit": "cm H2O"},
      {"measurement": "LPP Pre", "setting": "urethral resistance; 5 mg/kg p.o.", "value": "60.2 ± 5.1", "unit": "cm H2O"},
      {"measurement": "LPP10, the dose that increases LPP by 10 cm H2O", "setting": "urethral resistance; oral administration, high speed saline infusion method", "value": 1.2, "unit": "mg/kg"},
      {"measurement": "Change in body weight (% change)", "setting": "[1]; 0.45 mg/animal/day s.c. osmotic pump, day 3", "value": "−0.9 ± 0.2", "unit": "% change"},
      {"measurement": "Change in body weight (% change)", "setting": "[1]; 0.45 mg/animal/day s.c. osmotic pump, day 7", "value": "−1.4 ± 0.5", "unit": "% change"},
      {"measurement": "Change in body weight (% change)", "setting": "[1]; 0.45 mg/animal/day s.c. osmotic pump, day 10", "value": "−3.3 ± 0.4", "unit": "% change"},
      {"measurement": "Change in body weight (% change)", "setting": "[1]; 0.45 mg/animal/day s.c. osmotic pump, day 14", "value": "−3.7 ± 0.6", "unit": "% change"},
      {"measurement": "Change in body weight (% change)", "setting": "[1]; 1.35 mg/animal/day s.c. osmotic pump, day 3", "value": "−1.4 ± 0.3", "unit": "% change"},
      {"measurement": "Change in body weight (% change)", "setting": "[1]; 1.35 mg/animal/day s.c. osmotic pump, day 7", "value": "−2.5 ± 0.5", "unit": "% change"},
      {"measurement": "Change in body weight (% change)", "setting": "[1]; 1.35 mg/animal/day s.c. osmotic pump, day 10", "value": "−4.6 ± 0.3", "unit": "% change"},
      {"measurement": "Change in body weight (% change)", "setting": "[1]; 1.35 mg/animal/day s.c. osmotic pump, day 14", "value": "−5.4 ± 0.2", "unit": "% change"},
      {"measurement": "Change in body weight (% change)", "setting": "[1]; 4.5 mg/animal/day s.c. osmotic pump, day 3", "value": "−3.1 ± 0.6", "unit": "% change"},
      {"measurement": "Change in body weight (% change)", "setting": "[1]; 4.5 mg/animal/day s.c. osmotic pump, day 7", "value": "−4.8 ± 0.9", "unit": "% change"},
      {"measurement": "Change in body weight (% change)", "setting": "[1]; 4.5 mg/animal/day s.c. osmotic pump, day 10", "value": "−7.1 ± 0.7", "unit": "% change"},
      {"measurement": "Change in body weight (% change)", "setting": "[1]; 4.5 mg/animal/day s.c. osmotic pump, day 14", "value": "−8.6 ± 1.0", "unit": "% change"},
      {"measurement": "plasma concentration at which the drug lowered the body weight by 3.8%", "setting": "[1]; DIO-F344 rats, day 14, vehicle-subtracted, linear regression analysis", "value": 140, "unit": "ng/mL"},
      {"measurement": "Anal LPP Increase", "setting": "anus-closing functions", "value": "13.8 ± 5.7", "unit": "cmH2O"},
      {"measurement": "half-life in blood", "setting": "[2]; after a single dose of 10 mg", "value": 11.1, "unit": "h"},
      {"measurement": "maximum blood concentration", "setting": "[2]; after a single dose of 10 mg", "value": 46.0, "unit": "ng/mL"},
      {"measurement": "maximum blood concentration", "setting": "[2]; immediate release formulation 10 mg once daily (Blossom trial)", "value": 40, "unit": "ng/mL"},
      {"measurement": "maximum blood concentration (Cmax)", "setting": "[2]; immediate release formulation 10 mg twice daily (Blossom trial)", "value": 56, "unit": "ng/mL"},
      {"measurement": "patients with adverse events", "setting": "[3]; 10 mg bid group", "value": 57.9, "unit": "%"},
      {"measurement": "subjects with headache", "setting": "[3]; 10 mg bid group", "value": 32.5, "unit": "%"},
      {"measurement": "subjects with nausea", "setting": "[3]; 10 mg bid group", "value": 8.8, "unit": "%"},
      {"measurement": "difference of body weight loss from placebo", "setting": "[3]; 10 mg once daily (QD) (Blossom trial)", "value": 2.6, "unit": "%"},
      {"measurement": "weight loss, difference from placebo group", "setting": "[3]; obese patients, 10 mg twice daily (Blossom trial)", "value": 3.8, "unit": "%"}
    ]}
  ]
}
